# Where a name gives a salt, the structure may show the parent alone.
# Target: human factor Xa (FXa) (Homo sapiens, UniProt P00742)
# Test: Determination of the factor Xa inhibition (chromogenic substrate)
# Format: biochemical
# Conditions: human FXa 0.5 nmol/l, Pefachrome FXa substrate, 25° C., pH 8.3, extinction at 405 nm
# Procedure: A.1) Determination of the Factor Xa Inhibition:
# The enzymatic inhibition of human factor Xa (FXa) is measured using the conversion of a chromogenic substrate specific for FXa. Factor Xa cleaves p-nitroaniline from the chromogenic substrate. The determinations are carried out in microtitre plates as follows:
# The test substances, in various concentrations, are dissolved in DMSO and incubated for 10 minutes at 25° C. with human FXa (0.5 nmol/l dissolved in 50 mmol/l of Tris buffer [C,C,C-tris(hydroxymethyl)aminomethane], 150 mmol/l of NaCl, 0.1% BSA [bovine serum albumin], pH=8.3). Pure DMSO is used as control. The chromogenic substrate ([…] Pefachrome® FXa from Pentapharm) is then added. After an incubation time of 20 minutes at 25° C., the extinction at 405 nm is determined.
# Sequence of human factor Xa (FXa) (P00742 235-488 limits assumed): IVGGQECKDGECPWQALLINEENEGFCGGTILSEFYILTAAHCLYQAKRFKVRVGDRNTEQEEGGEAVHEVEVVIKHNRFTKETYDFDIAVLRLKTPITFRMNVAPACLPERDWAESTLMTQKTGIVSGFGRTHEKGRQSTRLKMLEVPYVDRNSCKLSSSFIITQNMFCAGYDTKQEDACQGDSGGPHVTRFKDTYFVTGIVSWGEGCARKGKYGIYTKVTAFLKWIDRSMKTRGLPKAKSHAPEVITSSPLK
# Sequence of human factor Xa (FXa) (P00742 41-179 partner limits assumed): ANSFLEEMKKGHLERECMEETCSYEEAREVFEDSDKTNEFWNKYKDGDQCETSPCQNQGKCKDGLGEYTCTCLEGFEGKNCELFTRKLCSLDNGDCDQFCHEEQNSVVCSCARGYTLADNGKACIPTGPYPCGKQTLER
row,SMILES,IC50 [nM]
1,"O=C(Nc1ccc(Cl)cn1)c1nccnc1C(=O)Nc1ccc(N2CCCC(O)C2=O)cc1F (centres unmarked) [Example 9, N-(5-Chloropyridin-2-yl)-N′-[2-fluor-4-(3-hydroxy-2-oxopiperidin-1-yl)phenyl]pyrazine-2,3-di-carboxamide]",4.4
2,"O=C(Nc1ccc(Cl)cc1)c1nccnc1C(=O)Nc1ccc(N2CCOCC2=O)cc1 [Example 11, N-(4-Chlorophenyl)-N′-[4-(3-oxomorpholin-4-yl)phenyl]pyrazine-2,3-dicarboxamide]",0.49
3,"O=C(Nc1ccc(N2CCOCC2=O)cc1)c1nccnc1C(=O)Nc1ccc(Cl)cn1 [Example 12, N-(5-Chloropyridin-2-yl)-N′[4-(3-oxomorpholin-4-yl)phenyl]pyrazine-2,3-dicarboxamide]",0.16
4,"O=C(Nc1ccc(F)cc1)c1nccnc1C(=O)Nc1ccc(N2CCOCC2=O)cc1 [Example 17, N-(4-Fluorophenyl)-N′[4-(3-oxomorpholin-4-yl)phenyl]pyrazine-2,3-dicarboxamide]",16
5,"Cc1ccc(NC(=O)c2nccnc2C(=O)Nc2ccc(N3CCOCC3=O)cc2)cc1 [Example 18, N-(4-Methylphenyl)-N′-[4-(3-oxomorpholin-4-yl)phenyl]pyrazine-2,3-dicarboxamide]",7.5
6,"C#Cc1ccc(NC(=O)c2nccnc2C(=O)Nc2ccc(N3CCOCC3=O)cc2)cc1 [Example 20, N-(4-Ethynylphenyl)-N′-[4-(3-oxomorpholin-4-yl)phenyl]pyrazine-2,3-dicarboxamide]",6.3
7,"O=C(Nc1ccc(Cl)cn1)c1nccnc1C(=O)Nc1ccc(-n2cccc(CNC3CC3)c2=O)cc1F [Example 30, N-(5-Chloropyridin-2-yl)-N′-{4-[3-[(cyclopropylamino)methyl]-2-oxopyridin-1(2H)-yl]-2-fluorophenyl}pyrazine-2,3-dicarboxamide trifluoracetate, trifluoroacetate]",0.44
8,"NCCOc1cc(N2CCOCC2=O)ccc1NC(=O)c1nccnc1C(=O)Nc1ccc(Cl)cn1 [Example 32, N-[2-(2-Aminoethoxy)-4-(3-oxomorpholin-4-yl)phenyl]-N′-(5-chloropyridin-2-yl)pyrazine-2,3-dicarboxamide trifluoroacetate]",0.3
